Changes are numbered by the printed parent chain. Where “and” joins values, the source holds several entries; their conditions need not be identical. Equal entries are not always repeated.
What was measured:
[1] = system: CLC-1; conditions: negative potentials; cited from earlier work
[2] = system: CLC-0; conditions: negative potentials; cited from earlier work
[3] = target: T1, N257A CLC-Ka (Homo sapiens, UniProt P51800, N257A); assay type: cell-based; conditions: 50 μM CPA, intracellular; −100 mV
T1 sequence (P51800 1-687 N257A): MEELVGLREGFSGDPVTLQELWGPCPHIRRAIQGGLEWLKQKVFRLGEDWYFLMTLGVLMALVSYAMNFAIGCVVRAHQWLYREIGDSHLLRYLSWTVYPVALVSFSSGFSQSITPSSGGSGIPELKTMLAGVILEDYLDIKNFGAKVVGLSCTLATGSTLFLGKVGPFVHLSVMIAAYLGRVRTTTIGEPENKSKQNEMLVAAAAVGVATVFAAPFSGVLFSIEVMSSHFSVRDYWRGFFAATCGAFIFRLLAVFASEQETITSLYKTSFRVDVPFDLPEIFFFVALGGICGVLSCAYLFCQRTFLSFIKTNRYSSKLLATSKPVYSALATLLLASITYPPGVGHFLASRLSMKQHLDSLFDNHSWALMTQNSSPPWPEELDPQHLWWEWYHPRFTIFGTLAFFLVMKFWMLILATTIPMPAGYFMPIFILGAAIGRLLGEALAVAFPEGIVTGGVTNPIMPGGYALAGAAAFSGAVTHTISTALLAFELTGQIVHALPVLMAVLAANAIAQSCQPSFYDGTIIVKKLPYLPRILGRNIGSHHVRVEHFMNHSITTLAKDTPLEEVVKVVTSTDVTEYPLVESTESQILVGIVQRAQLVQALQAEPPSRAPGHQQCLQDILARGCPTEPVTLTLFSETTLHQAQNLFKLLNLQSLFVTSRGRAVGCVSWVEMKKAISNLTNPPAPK
T1 sequence (Q8WZ55 1-320 Y98A partner): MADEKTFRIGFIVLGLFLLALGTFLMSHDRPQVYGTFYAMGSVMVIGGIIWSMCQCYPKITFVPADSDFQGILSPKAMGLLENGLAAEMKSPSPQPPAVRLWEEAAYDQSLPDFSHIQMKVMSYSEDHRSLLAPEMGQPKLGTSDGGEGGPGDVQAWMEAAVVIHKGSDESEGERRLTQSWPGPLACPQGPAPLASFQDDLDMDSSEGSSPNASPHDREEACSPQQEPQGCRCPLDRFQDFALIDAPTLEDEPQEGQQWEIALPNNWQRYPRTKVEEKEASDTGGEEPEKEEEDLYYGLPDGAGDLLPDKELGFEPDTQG

[4] = target: T1, N257A CLC-Ka; assay type: cell-based; conditions: 100 μM CPAint; negative voltages
[5] = target: T2, WT CLC-Ka (Homo sapiens, UniProt P51800); conditions: Xenopus oocytes; cited from earlier work
T2 sequence (P51800 1-687): T1 sequence (P51800 1-687 N257A) with A257N
T2 sequence (Q8WZ55 1-320 Y98A partner): T1 sequence (Q8WZ55 1-320 Y98A partner)

SMILES | effect on CLC-1 currents [1] | effect on CLC-0 currents [2] | amplitude of predominant conductance level in the presence of CPA [3] | effect of CPA on currents [4] | effect on CLC-Ka [5]
O=C(O)COc1ccc(Cl)cc1 [CPA, p-chlorophenoxy-acetic acid] | block | block | ~ 0.66 pA and 0.66 pA | inhibits | –
O=C(O)c1ccccc1Nc1cccc(C(F)(F)F)c1 [flufenamic acid] | – | – | – | – | inhibit
O=S(=O)(O)c1cc(N=C=S)ccc1C=Cc1ccc(N=C=S)cc1S(=O)(=O)O [DIDS] | – | – | – | – | inhibit

Source: article PMC4331650 (Biochimica et Biophysica Acta, 2014)
